Values belong to the molecule of their own block, whether it stands above or below them.
Key:
[1] = tested on: larvae of the mustard beetle (Phaedon cochleariae); experiment: Phaedon larvae test (cabbage leaves dipped); type: in vivo; conditions: for Kill rate in % after 7 d: leaf dip, Brassica oleracea
Method: [table] To produce a suitable preparation of active compound, 1 part by weight of active compound is mixed with the stated amount of solvent and the stated amount of emulsifier, and the concentrate is diluted with water to the desired concentration. Cabbage leaves (Brassica oleracea) are treated by being dipped into the active compound preparation of the desired concentration and populated with larvae of the mustard beetle (Phaedon cochleariae) while the leaves are still moist. After the desired period of time, the kill in % is determined. 100% means that all beetle larvae have been killed; 0% means that none of the beetle larvae have been killed.

[2] = tested on: caterpillars of the diamond back moth (Plutella xylostella); experiment: Plutella test; type: in vivo
Method: (§1) [table] To produce a suitable preparation of active compound, 1 part by weight of active compound is mixed with the stated amounts of solvent and emulsifier, and the concentrate is diluted with emulsifier-containing water to the desired concentration. Cabbage leaves (Brassica oleracea) are treated by being dipped into the active compound preparation of the desired concentration and populated with caterpillars of the diamond back moth (Plutella xylostella) while the leaves are still moist. After the desired period of time, the kill in % is determined. 100% means that all caterpillars have been killed; 0% means that none of the caterpillars have been killed.

[3] = logP determination by HPLC on reversed-phase column (C 18), EEC Directive 79/831 Annex V.A8; type: physicochemical; conditions: reversed-phase C 18, 43° C., acid range (0.1% aqueous phosphoric acid, acetonitrile), marked a)
How it was run: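 Reversed-phase C18 HPLC at 43° C, per EEC Directive 79/831 Annex V.A8, acid range: 0.1% aqueous phosphoric acid with linear 10–90% acetonitrile gradient. logP derived from retention time by linear interpolation between calibrating unbranched alkan-2-ones (C3–C16) of known logP.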

[4] = tested on: larvae of the mustard beetle (Phaedon cochleariae); experiment: Phaedon test (spray treatment); type: in vivo
How it was run: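 Chinese cabbage leaf disks sprayed with compound diluted in emulsifier-containing water, dried, then infested with mustard beetle larvae. After a set period, mortality scored in %: 100% all larvae dead, 0% none dead.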

[5] = tested on: common spidermite (Tetranychus urticae); experiment: Tetranychus test; type: in vivo; conditions: 500 ppm, spray, Phaseolus vulgaris disks
Method: (§2) To produce a suitable preparation of active compound, 1 part by weight of active compound is mixed with the stated amounts of solvent and emulsifier, and the concentrate is diluted with emulsifier-containing water to the desired concentration.
Disks of beans (Phaseolus vulgaris), which are infested by all stages of the common spidermite (Tetranychus urticae) are sprayed with an active compound preparation of the desired concentration.
After the desired period of time, the effect in % is determined. 100% means that all spidermites have been killed; 0% means that none of the spidermites have been killed.

[6] = tested on: caterpillars of the army worm (Spodoptera frugiperda); experiment: Spodoptera frugiperda test (cabbage leaves dipped); type: in vivo
Method: (§3) [table] To produce a suitable preparation of active compound, 1 part by weight of active compound is mixed with the stated amount of solvent and the stated amount of emulsifier, and the concentrate is diluted with emulsifier-containing water to the desired concentration. Cabbage leaves (Brassica oleracea) are treated by being dipped into the active compound preparation of the desired concentration and populated with caterpillars of the army worm (Spodoptera frugiperda) while the leaves are still moist. After the desired period of time, the kill in % is determined. 100% means that all caterpillars have been killed; 0% means that none of the caterpillars have been killed.

[7] = tested on: caterpillars of the army worm (Spodoptera exigua); experiment: Spodoptera exigua test; type: in vivo
Method: as §3, with “amounts” for “amount”, “and” for “and the stated amount of”, “exigua)” for “frugiperda)”

[8] = tested on: caterpillars of the diamond back moth (Plutella xylostella, resistant strain); experiment: Plutella test; resistant strain; type: in vivo
Method: as §2
Cabbage leaves (Brassica oleracea) are treated by being dipped into the active compound preparation of the desired concentration and populated with caterpillars of the diamond back moth (Plutella xylostella, resistant strain) while the leaves are still moist.
After the desired period of time, the kill in % is determined. 100% means that all caterpillars have been killed; 0% means that none of the caterpillars have been killed.

[9] = tested on: green peach aphid (Myzus persicae); experiment: Myzus test (spray treatment, Brassica pekinensis); type: in vivo; conditions: for Kill rate in % after 5 d: 500 g/ha, spray, Brassica pekinensis disks
Method: [table] To produce a suitable preparation of active compound, 1 part by weight of active compound is mixed with the stated amounts of solvents and emulsifier, and the concentrate is diluted with emulsifier-containing water to the desired concentration. Disks of Chinese cabbage (Brassica pekinensis) which are infested by all stages of the green peach aphid (Myzus persicae) are sprayed with an active compound preparation of the desired concentration. After the desired period of time, the effect in % is determined. 100% means that all aphids have been killed; 0% means that none of the aphids have been killed.

[10] = tested on: black bean aphid (Aphis fabae); experiment: Aphis fabae test; type: in vivo
Method: as §1, with “Shoots of young broadbeans (Vicia faba) which are heavily infested by the black bean aphid (Aphis fabae)” for “Cabbage leaves (Brassica oleracea)”, “concentration.” for “concentration and populated with caterpillars of the diamond back moth (Plutella xylostella) while the leaves are still moist.”, “aphids” for “caterpillars”

- logP [3]: logP = 3.53^a)
SMILES: O=C1C(O)=C(c2ccccc2Cl)C(=O)N1C1CCCC(C(F)(F)F)C1 (centres unmarked) [Example 214]
- activity in the Phaedon larvae test [1]: good activity
- Kill rate in % after 7 d ([1]; 500 ppm): 100%
- activity in the Plutella test [2]: good activity
- Kill rate in % after 7 d ([2]; 500 ppm, leaf dip): 100%
- activity in the Phaedon test (spray treatment) [4]: good activity
- Kill rate in % after 7 d ([4]; 100 g/ha, spray, Brassica pekinensis disks): 100%
- Kill rate in % after 5 d [5]: 90%
- activity in the Spodoptera frugiperda test (leaf dip) [6]: good activity
- Kill rate in % after 7 d ([6]; 500 ppm, leaf dip, Brassica oleracea): 100%
- activity in the Spodoptera exigua test [7]: good activity
- Kill rate in % after 7 d ([7]; 500 ppm, leaf dip): 100%
- activity in the Plutella test, resistant strain [8]: good activity
- Kill rate in % after 7 d ([8]; 500 ppm, leaf dip, resistant strain): 100%

- melting point: 91 °C
SMILES: CCN1C(=O)C(OC(=O)C(C)(C)C)=C(c2c(C)cc(C)cc2C)C1=O [Example 2, 1-ethyl-3-pivaloyloxy-4-(2,4,6-trimethylphenyl)-1H-pyrrole-2,5-dione]
- activity in the Myzus test (spray, Brassica pekinensis) [9]: good activity
- Kill rate in % after 5 d [9]: 90%

SMILES: C=CCN1C(=O)C(O)=C(c2c(C)cc(C)cc2C)C1=O [Example 4]
- activity in the Phaedon larvae test [1]: good activity
- Kill rate in % after 7 d ([1]; 1000 ppm): 100%
- activity in the Myzus test (spray, Brassica pekinensis) [9]: good activity
- Kill rate in % after 5 d [9]: 70%
- activity in the Aphis fabae test [10]: good activity
- Kill rate in % after 6 d ([10]; 1000 ppm, Vicia faba shoots dipped): 99%

Source: patent US20090099192A1, “Substituted 1H-pyrrole-2,5-diones” (Bayer CropScience AG, priority 2004, published 2009)
